According to PubChem BioAssay (NCI):
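The compound was tested at five concentrations on cells cultured in 96-well plates, with a 48-hour exposure period. The concentration for full growth arrest is given as TGI.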

Assays:
Experiment in all cases: DTP human tumour cell line panel, 48 h
MDA-MB-435 = test system: MDA-MB-435
SNB-19 CNS = test system: SNB-19 CNS
HCC-2998 colon = test system: HCC-2998 colon
HOP-92 NSCLC = test system: HOP-92 NSCLC
OVCAR-3 ovarian = test system: OVCAR-3 ovarian
HS 578T breast = test system: HS 578T breast
RXF 393 renal = test system: RXF 393 renal
SK-OV-3 ovarian = test system: SK-OV-3 ovarian
SK-MEL-5 melanoma = test system: SK-MEL-5 melanoma
HOP-62 NSCLC = test system: HOP-62 NSCLC
NCI/ADR-RES ovarian = test system: NCI/ADR-RES ovarian
COLO 205 colon = test system: COLO 205 colon
EKVX NSCLC = test system: EKVX NSCLC
SK-MEL-2 melanoma = test system: SK-MEL-2 melanoma
SN12C renal = test system: SN12C renal
SNB-75 CNS = test system: SNB-75 CNS
UO-31 renal = test system: UO-31 renal
HCT-15 colon = test system: HCT-15 colon
OVCAR-8 ovarian = test system: OVCAR-8 ovarian
M14 melanoma = test system: M14 melanoma
786-0 renal = test system: 786-0 renal
SK-MEL-28 melanoma = test system: SK-MEL-28 melanoma
HCT-116 colon = test system: HCT-116 colon
SR leukemia = test system: SR leukemia
OVCAR-4 ovarian = test system: OVCAR-4 ovarian
MDA-MB-231 breast = test system: MDA-MB-231 breast
A498 renal = test system: A498 renal
PC-3 prostate = test system: PC-3 prostate
CCRF-CEM leukemia = test system: CCRF-CEM leukemia
HT29 colon = test system: HT29 colon
MOLT-4 leukemia = test system: MOLT-4 leukemia
UACC-257 melanoma = test system: UACC-257 melanoma
NCI-H23 lung = test system: NCI-H23 lung
NCI-H522 lung = test system: NCI-H522 lung
UACC-62 melanoma = test system: UACC-62 melanoma
NCI-H226 lung = test system: NCI-H226 lung
SF-268 CNS = test system: SF-268 CNS
HL-60(TB) leukemia = test system: HL-60(TB) leukemia
MDA-N = test system: MDA-N
T-47D breast = test system: T-47D breast
BT-549 breast = test system: BT-549 breast
CAKI-1 renal = test system: CAKI-1 renal
A549 NSCLC = test system: A549 NSCLC
SF-539 CNS = test system: SF-539 CNS
OVCAR-5 ovarian = test system: OVCAR-5 ovarian
DU-145 prostate = test system: DU-145 prostate
KM12 colon = test system: KM12 colon
MALME-3M melanoma = test system: MALME-3M melanoma
U251 CNS = test system: U251 CNS
SF-295 CNS = test system: SF-295 CNS
ACHN renal = test system: ACHN renal
IGROV1 ovarian = test system: IGROV1 ovarian
MCF7 breast = test system: MCF7 breast
LOX IMVI melanoma = test system: LOX IMVI melanoma
TK-10 renal = test system: TK-10 renal
SW-620 colon = test system: SW-620 colon
NCI-H460 lung = test system: NCI-H460 lung
RPMI-8226 leukemia = test system: RPMI-8226 leukemia
K-562 leukemia = test system: K-562 leukemia

Structure (SMILES): COC(=O)/C(=N/NC(N)=O)C(C(=O)C(=O)Nc1ccc(C)cc1)c1nc2ccc(C(=O)c3ccccc3)cc2[nH]c1=O (centres undefined)
- TGI (MDA-MB-435): > 100 µM
- TGI (SNB-19 CNS): > 100 µM
- TGI (HCC-2998 colon): > 100 µM
- TGI (HOP-92 NSCLC): > 100 µM
- TGI (OVCAR-3 ovarian): > 100 µM
- TGI (HS 578T breast): > 100 µM
- TGI (RXF 393 renal): > 100 µM
- TGI (SK-OV-3 ovarian): > 100 µM
- TGI (SK-MEL-5 melanoma): > 100 µM
- TGI (HOP-62 NSCLC): > 100 µM
- TGI (NCI/ADR-RES ovarian): > 100 µM
- TGI (COLO 205 colon): > 100 µM
- TGI (EKVX NSCLC): > 100 µM
- TGI (SK-MEL-2 melanoma): > 100 µM
- TGI (SN12C renal): > 100 µM
- TGI (SNB-75 CNS): > 100 µM
- TGI (UO-31 renal): > 100 µM
- TGI (HCT-15 colon): > 100 µM
- TGI (OVCAR-8 ovarian): > 100 µM
- TGI (M14 melanoma): > 100 µM
- TGI (786-0 renal): > 100 µM
- TGI (SK-MEL-28 melanoma): > 100 µM
- TGI (HCT-116 colon): > 100 µM
- TGI (SR leukemia): 41.8 µM
- TGI (OVCAR-4 ovarian): > 100 µM
- TGI (MDA-MB-231 breast): > 100 µM
- TGI (A498 renal): 89.6 µM
- TGI (PC-3 prostate): > 100 µM
- TGI (CCRF-CEM leukemia): > 100 µM
- TGI (HT29 colon): > 100 µM
- TGI (MOLT-4 leukemia): > 100 µM
- TGI (UACC-257 melanoma): > 100 µM
- TGI (NCI-H23 lung): > 100 µM
- TGI (NCI-H522 lung): > 100 µM
- TGI (UACC-62 melanoma): > 100 µM
- TGI (NCI-H226 lung): > 100 µM
- TGI (SF-268 CNS): > 100 µM
- TGI (HL-60(TB) leukemia): > 100 µM
- TGI (MDA-N): > 100 µM
- TGI (T-47D breast): > 100 µM
- TGI (BT-549 breast): > 100 µM
- TGI (CAKI-1 renal): > 100 µM
- TGI (A549 NSCLC): > 100 µM
- TGI (SF-539 CNS): > 100 µM
- TGI (OVCAR-5 ovarian): > 100 µM
- TGI (DU-145 prostate): > 100 µM
- TGI (KM12 colon): > 100 µM
- TGI (MALME-3M melanoma): > 100 µM
- TGI (U251 CNS): > 100 µM
- TGI (SF-295 CNS): > 100 µM
- TGI (ACHN renal): > 100 µM
- TGI (IGROV1 ovarian): > 100 µM
- TGI (MCF7 breast): > 100 µM
- TGI (LOX IMVI melanoma): > 100 µM
- TGI (TK-10 renal): > 100 µM
- TGI (SW-620 colon): > 100 µM
- TGI (NCI-H460 lung): > 100 µM

Structure (SMILES): Cc1ccc(NC(=O)c2cc(S(=O)(=O)Nc3n[nH]c(=O)n3-c3ccccc3)c(S)cc2Cl)cc1
- TGI (MDA-MB-435): > 100 µM
- TGI (SNB-19 CNS): > 100 µM
- TGI (HCC-2998 colon): > 100 µM
- TGI (HOP-92 NSCLC): > 100 µM
- TGI (OVCAR-3 ovarian): > 100 µM
- TGI (HS 578T breast): > 100 µM
- TGI (RXF 393 renal): > 100 µM
- TGI (SK-OV-3 ovarian): > 100 µM
- TGI (SK-MEL-5 melanoma): > 100 µM
- TGI (NCI/ADR-RES ovarian): > 100 µM
- TGI (COLO 205 colon): > 100 µM
- TGI (EKVX NSCLC): > 100 µM
- TGI (SK-MEL-2 melanoma): > 100 µM
- TGI (SN12C renal): > 100 µM
- TGI (SNB-75 CNS): > 100 µM
- TGI (UO-31 renal): > 100 µM
- TGI (HCT-15 colon): > 100 µM
- TGI (OVCAR-8 ovarian): > 100 µM
- TGI (M14 melanoma): > 100 µM
- TGI (786-0 renal): > 100 µM
- TGI (SK-MEL-28 melanoma): > 100 µM
- TGI (HCT-116 colon): > 100 µM
- TGI (SR leukemia): > 100 µM
- TGI (OVCAR-4 ovarian): > 100 µM
- TGI (MDA-MB-231 breast): > 100 µM
- TGI (A498 renal): > 100 µM
- TGI (PC-3 prostate): > 100 µM
- TGI (HT29 colon): > 100 µM
- TGI (MOLT-4 leukemia): > 100 µM
- TGI (UACC-257 melanoma): > 100 µM
- TGI (NCI-H23 lung): > 100 µM
- TGI (NCI-H522 lung): > 100 µM
- TGI (UACC-62 melanoma): > 100 µM
- TGI (RPMI-8226 leukemia): > 100 µM
- TGI (NCI-H226 lung): > 100 µM
- TGI (SF-268 CNS): > 100 µM
- TGI (HL-60(TB) leukemia): > 100 µM
- TGI (MDA-N): > 100 µM
- TGI (T-47D breast): > 100 µM
- TGI (BT-549 breast): > 100 µM
- TGI (CAKI-1 renal): > 100 µM
- TGI (A549 NSCLC): > 100 µM
- TGI (SF-539 CNS): > 100 µM
- TGI (OVCAR-5 ovarian): > 100 µM
- TGI (DU-145 prostate): > 100 µM
- TGI (KM12 colon): > 100 µM
- TGI (MALME-3M melanoma): > 100 µM
- TGI (U251 CNS): > 100 µM
- TGI (IGROV1 ovarian): > 100 µM
- TGI (K-562 leukemia): > 100 µM
- TGI (MCF7 breast): > 100 µM
- TGI (LOX IMVI melanoma): > 100 µM
- TGI (TK-10 renal): > 100 µM
- TGI (SW-620 colon): > 100 µM
- TGI (NCI-H460 lung): > 100 µM

Structure (SMILES): CC(C)(Oc1ccc(Cl)cc1)C(=O)N(C(=O)N1CCN(c2ccccc2)CC1)c1ccccc1
- TGI (MDA-MB-435): > 100 µM
- TGI (SNB-19 CNS): > 100 µM
- TGI (HCC-2998 colon): > 100 µM
- TGI (HOP-92 NSCLC): > 100 µM
- TGI (OVCAR-3 ovarian): > 100 µM
- TGI (HS 578T breast): > 100 µM
- TGI (RXF 393 renal): > 100 µM
- TGI (SK-OV-3 ovarian): > 100 µM
- TGI (SK-MEL-5 melanoma): > 100 µM
- TGI (HOP-62 NSCLC): > 100 µM
- TGI (NCI/ADR-RES ovarian): > 100 µM
- TGI (COLO 205 colon): > 100 µM
- TGI (EKVX NSCLC): > 100 µM
- TGI (SK-MEL-2 melanoma): > 100 µM
- TGI (SN12C renal): > 100 µM
- TGI (SNB-75 CNS): > 100 µM
- TGI (UO-31 renal): > 100 µM
- TGI (HCT-15 colon): > 100 µM
- TGI (OVCAR-8 ovarian): > 100 µM
- TGI (M14 melanoma): > 100 µM
- TGI (786-0 renal): > 100 µM
- TGI (SK-MEL-28 melanoma): > 100 µM
- TGI (HCT-116 colon): > 100 µM
- TGI (SR leukemia): > 100 µM
- TGI (OVCAR-4 ovarian): > 100 µM
- TGI (MDA-MB-231 breast): > 100 µM
- TGI (A498 renal): > 100 µM
- TGI (PC-3 prostate): > 100 µM
- TGI (CCRF-CEM leukemia): > 100 µM
- TGI (HT29 colon): > 100 µM
- TGI (MOLT-4 leukemia): > 100 µM
- TGI (UACC-257 melanoma): > 100 µM
- TGI (NCI-H23 lung): > 100 µM
- TGI (NCI-H522 lung): > 100 µM
- TGI (UACC-62 melanoma): > 100 µM
- TGI (NCI-H226 lung): > 100 µM
- TGI (SF-268 CNS): > 100 µM
- TGI (HL-60(TB) leukemia): > 100 µM
- TGI (MDA-N): > 100 µM
- TGI (T-47D breast): > 100 µM
- TGI (BT-549 breast): > 100 µM
- TGI (CAKI-1 renal): > 100 µM
- TGI (A549 NSCLC): > 100 µM
- TGI (SF-539 CNS): > 100 µM
- TGI (OVCAR-5 ovarian): > 100 µM
- TGI (DU-145 prostate): > 100 µM
- TGI (KM12 colon): > 100 µM
- TGI (MALME-3M melanoma): > 100 µM
- TGI (U251 CNS): > 100 µM
- TGI (SF-295 CNS): > 100 µM
- TGI (ACHN renal): > 100 µM
- TGI (K-562 leukemia): > 100 µM
- TGI (MCF7 breast): > 100 µM
- TGI (LOX IMVI melanoma): > 100 µM
- TGI (TK-10 renal): > 100 µM
- TGI (SW-620 colon): > 100 µM
- TGI (NCI-H460 lung): > 100 µM
